Test results as given in patent US20190137505A1 (THE ARIZONA BOARD OF REGENTS ON BEHALF OF THE UNIVERSITY OF …, priority 2015, published 2019).

Molecular target: T1, plasminogen (Homo sapiens, UniProt P00747)
T1 construct: Glu-Pg, uPA, tPA, fibrinogen, and chromogenic substrate for Pn were purchased from Molecular Innovations (Novi, Mich.); purchased Molecular Innovations (Novi, Mich.)
Test: LC-MS/MS identification of sites of MG adduction on plasminogen in vitro (Tables 1 and 12)
Conditions: 500 μM MG, 24 hr
Procedure: 10 μg Pg was incubated with MG (50-500 μM) in tris-buffered saline (TBS) for 24 hours at 37° C. Following modification, sample volumes were increased to 150 μL and placed in 5 kDa spin filters to reduce volume and remove excess MG from solution.
MG-modified (500 μM) and unmodified Pg control (same incubation conditions without MG) were added to 250 μL amount of rehydration buffer (6M urea, 2M thiourea, 2% CHAPS, 100 mM DTT, 0.5% 3-10 ampholytes) and 5 μL of 3-10 ampholytes (Bio-Rad). Sample rehydrated with a 13 cm 4-7 pH isoelectric focusing strip (GE Healthcare) overnight. Following rehydration, strips were placed in a Bio-Rad PROTEAN IEF Cell focusing instrument. Strips were first focused for 1 hour at 500 V, and then run at a maximum of 8,000V until the strips have reached a final total of 45,000 V/hrs at which point gels are held at 500V until removed. Focused strips were removed, reduced with DTT, cysteines carbamidomethylated with iodoacetamide, and run on a 4-20% gradient Criterion gel for 55 minutes at 200V. Gels were stained for stained according to manufacturer instructions with Imperial Blue Protein (ThermoScientific, Rockford, Ill.) and destained immediately with water. Gel bands were excised and trypsin digested.
Coomassie stained gel-bands were excised and washed in ddH2O for 15 min. H2O was removed and bands were incubated in 50/50 acetonitrile (ACN):ddH2O for 15 min. ACN:ddH2O was removed and bands were incubated with ACN for 5 min. ACN was removed and gels were incubated with 100 mM ammonium bicarbonate (AMBIC). An equal volume of ACN was added to make 1:1 solution and was incubated for 15 min. The ACN/AMBIC solution was removed and remaining gel bands were dried by speed-vacuum. 10 mM dithiothreitol (DTT) was added to each band and incubated at 56° C. for 45 min. DTT was removed and sample brought to room temperature (RT). Iodoacetamide (55 mM) was added to each sample and incubated at RT for 30 min in dark. Iodoacetamide was removed and 100 mM AMBIC was added and bands were incubated for 5 min. An equal volume of ACN was added to make a 1:1 solution and incubated for 15 min. The ACN/AMBIC solution was removed and bands were dried by speed-vacuum. Bands were digested with trypsin (400 ng/band) in 50 mM AMBIC and incubated on ice for 45 min. Tryptic solution was removed and 50 mM AMBIC was added to each band and incubated overnight at 37° C. to complete digestion. Digests were acidified using 10% trifluoroacetic acid (TFA). Supernatant was saved. Band was covered with TFA:ACN (0.1%:60%) and sonicated at 20° C. water bath for 30 min. Supernatant was combined with previous fraction. Sampled were speed vacuumed to a final volume of 10 μL prior to LC-MS/MS analysis on an LTQ Orbitrap Velos mass spectrometer as described below.
LC-MS/MS analysis of in-gel trypsin digested-proteins (Shevchenko et al., 1996) was carried out using a LTQ Orbitrap Velos mass spectrometer (Thermo Fisher Scientific, San Jose, Calif.) equipped with an Advion nanomate ESI source (Advion, Ithaca, N.Y.), following ZipTip (Millipore, Billerica, Mass.) C18 sample clean-up according to the manufacturer's instructions. Peptides were eluted from a C18 precolumn (100-μm id×2 cm, Thermo Fisher Scientific) onto an analytical column (75-μm ID×10 cm, C18, Thermo Fisher Scientific) using a 5-20% gradient of solvent B (acetonitrile, 0.1% formic acid) over 65 minutes, followed by a 20-35% gradient of solvent B over 25 minutes, all at a flow rate of 400 nl/min. Solvent A consisted of water and 0.1% formic acid. Data dependent scanning was performed by the Xcalibur v 2.1.0 software (Andon et al., 2002) using a survey mass scan at 60,000 resolution in the Orbitrap analyzer scanning m/z 350-1600, followed by collision-induced dissociation (CID) tandem mass spectrometry (MS/MS) of the fourteen most intense ions in the linear ion trap analyzer. […]

T1 sequence (P00747 20-810 limits assumed): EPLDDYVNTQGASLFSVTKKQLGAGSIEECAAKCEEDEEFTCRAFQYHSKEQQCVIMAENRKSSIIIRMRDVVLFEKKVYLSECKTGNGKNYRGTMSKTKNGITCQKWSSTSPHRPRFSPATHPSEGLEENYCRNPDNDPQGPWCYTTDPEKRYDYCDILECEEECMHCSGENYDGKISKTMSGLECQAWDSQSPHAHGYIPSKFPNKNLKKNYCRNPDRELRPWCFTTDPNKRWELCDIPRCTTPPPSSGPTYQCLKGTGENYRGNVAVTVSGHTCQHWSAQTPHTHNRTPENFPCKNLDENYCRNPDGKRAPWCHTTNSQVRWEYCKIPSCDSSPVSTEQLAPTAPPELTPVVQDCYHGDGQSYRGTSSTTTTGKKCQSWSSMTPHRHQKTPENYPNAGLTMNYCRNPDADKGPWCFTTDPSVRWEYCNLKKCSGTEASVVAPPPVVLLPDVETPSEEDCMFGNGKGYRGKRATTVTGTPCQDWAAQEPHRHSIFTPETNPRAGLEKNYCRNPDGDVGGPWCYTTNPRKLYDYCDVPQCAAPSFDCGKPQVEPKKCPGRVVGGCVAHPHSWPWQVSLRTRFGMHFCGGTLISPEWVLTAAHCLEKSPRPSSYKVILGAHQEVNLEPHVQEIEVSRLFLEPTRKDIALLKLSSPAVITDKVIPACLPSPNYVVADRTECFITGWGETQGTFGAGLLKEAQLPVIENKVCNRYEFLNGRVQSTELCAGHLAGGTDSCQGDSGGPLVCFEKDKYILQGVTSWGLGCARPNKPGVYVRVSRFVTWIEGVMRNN

CC(=O)C=O [MG, Methylglyoxal]
Spectra Observed (site 312, MG-DH, RAPWC(+57)HTTNSQVR): 10 | Spectra Observed (site 312, MG-HI, RAPWC(+57)HTTNSQVR): 8 | Spectra Observed (site 324, MG-DH, RAPWC(+57)HTTNSQVRWEYC(+57)K): 4 | Spectra Observed (site 324, MG-HI, APWC(+57)HTTN SQVRWEYC(+57)K): 3 | Spectra Observed (site 324, MG-HI, RAPWC(+57)HTTNSQVRWEYC(+57)K): 7 | Spectra Observed (site 389, MG-DH, C(+57)QSWSSMTPHRHQK): 2 | Spectra Observed (site 389, MG-DH, KC(+57)QSWSSMTPHRHQK): 1 | Spectra Observed (site 389, MG-HI, C(+57)QSWSSMTPHRHQK): 4 | Spectra Observed (site 389, MG-HI, KC(+57)QSWSSMTPHRHQK): 1 | Spectra Observed (site 474, MG-DH, GKRATTVTGTPC(+57)QDWAAQEPHR): 1 | Spectra Observed (site 474, MG-DH, RATTVTGTPC(+57)QDWAAQEPHR): 3 | Spectra Observed (site 474, MG-HI, GKRATTVTGTPC(+57)QDWAAQEPHR): 4 | Spectra Observed (site 474, MG-HI, RATTVTGTPC(+57)QDWAAQEPHR): 3 | Spectra Observed (site 493, MG-DH, ATTVTGTPC(+57)QDWAAQEPHRHSIFTPETNPR): 4 | Spectra Observed (site 493, MG-DH, RATTVTGPC(+57)QDWAAQEPHRHSIFTPETNPR): 3 | Spectra Observed (site 493, MG-HI, ATTVTGTPC(+57)QDWAAQEPHRHSIFTPETNPR): 6 | Spectra Observed (site 493, MG-HI, RATTVTGPC(+57)QDWAAQEPHRHSIFTPETNPR): 4 | Spectra Observed (site 504, MG-DH, HSIFTPETNPRAGLEK): 9 | Spectra Observed (site 504, MG-HI, HSIFTPETNPRAGLEK): 16 | Spectra Observed (site 530, MG-DH, NPDGDVGGPWC(+57)YTTNPRK): 9 | Spectra Observed (site 530, MG-HI, NPDGDVGGPWC(+57)YTTNPRK): 12 | Spectra Observed (site 530, MG-HI, NYC(+57)RNPDGDVGGPWC(+57)YTTNPRK): 3 | Spectra Observed (site 561, MG-DH, C(+57)PGRVVGGC(+57)VAHPHSWPWQVSLR): 5 | Spectra Observed (site 561, MG-DH, CPGRVVGGCVAHPHSWPWQVSLR): 1 | Spectra Observed (site 561, MG-DH, KC(+57)PGRVVGGC(+57)VAHPHSWPWQVSLR): 10 | Spectra Observed (site 561, MG-DH, KCPGRVVGGCVAHPHSWPWQVSLR): 1 | Spectra Observed (site 561, MG-HI, C(+57)PGRVVGGC(+57)VAHPHSWPWQVSLR): 5 | Spectra Observed (site 561, MG-HI, KC(+57)PGRVVGGC(+57)VAHPHSWPWQVSLR): 12 | Spectra Observed (site 582, MG-DH, TRFGMHFC(+57)GGTLISPEWVLTAAHC(+57)LEK): 1 | Spectra Observed (site 582, MG-HI, TRFGM(+16)HFC(+57)GGTLISPEWVLTAAHC(+57)LEK): 1 | Spectra Observed (site 582, MG-HI, TRFGMHFC(+57)GGTLISPEWVLTAAHC(+57)LEK): 1 | Spectra Observed (site 644, MG-HI, LFLEPTRK): 2 | Spectra Observed (site 712, MG-DH, VC(+57)NRYEFLNGR): 5 | Spectra Observed (site 712, MG-HI, VC(+57)NRYEFLNGR): 4 | Spectra Observed (site 767, MG-DH, DKYILQGVTSWGLGC(+57)ARPNKPGVYVR): 8 | Spectra Observed (site 767, MG-DH, YILQGVTSWGLGC(+57)ARPNKPGVYVR): 6 | Spectra Observed (site 767, MG-HI, DKYILQGVTSWGLGC(+57)ARPNKPGVYVR): 11 | Spectra Observed (site 767, MG-HI, YILQGVTSWGLGC(+57)ARPNKPGVYVR): 6 | Spectra Observed (site 779, MG-DH, VSRFVTWIEGVM(+16)R): 5 | Spectra Observed (site 779, MG-DH, VSRFVTWIEGVMR): 2 | Spectra Observed (site 779, MG-HI, VSRFVTWIEGVM(+16)R): 9 | Spectra Observed (site 779, MG-HI, VSRFVTWIEGVMR): 4 | Spectra Observed (site 789, MG-DH, FVTWIEGVM(+16)RNN): 6 | Spectra Observed (site 789, MG-DH, FVTWIEGVMRNN): 13 | Spectra Observed (site 789, MG-HI, FVTWIEGVM(+16)RNN): 10 | Spectra Observed (site 789, MG-HI, FVTWIEGVMRNN): 14 | Spectra Observed (sites 115/117, MG-DH, MG-HI, WSSTSPHRPRFSPATHPSEGLEENYC(+57)R): 2 | Spectra Observed (sites 115/117, MG-DH, WSSTSPHRPRFSPATHPSEGLEENYC(+57)R): 1 | Spectra Observed (sites 115/117, MG-HI, WSSTSPHRPRFSPATHPSEGLEENYC(+57)R): 3 | Spectra Observed (sites 220/223, MG-DH, NPDRELRPWC(+57)FTTDPNKR): 3 | Spectra Observed (sites 220/223, MG-HI, MG-DH, NPDRELRPWC(+57)FTTDPNKR): 9 | Spectra Observed (sites 220/223, MG-HI, NPDRELRPWC(+57)FTTDPNKR): 8 | Spectra Observed (sites 312/324, MG-DH, MG-HI, RAPWC(+57)HTTNSQVRWEYC(+57)K): 7 | Spectra Observed (sites 312/324, MG-DH, RAPWC(+57)HTTNSQVRWEYC(+57)K): 3 | Spectra Observed (sites 312/324, MG-HI, RAPWC(+57)HTTNSQVRWEYC(+57)K): 2 | Spectra Observed (sites 474/493, MG-DH, MG-HI, RATTVTGTPCQDWAAQEPHRHSIFTPETNPR): 1 | Spectra Observed (sites 474/493, MG-HI, RATTVTGTPC(+57)QDWAAQEPHRHSIFTPETNPR): 1 | Spectra Observed (sites 489/504, MG-HI, MG-DH, ATTVTGTPC(+57)QDWAAQEPHRHSIFTPETNPRAGLEK): 1 | Spectra Observed (sites 779/789, MG-DH, VSRFVTWIEGVM(+16)RNN): 1 | Spectra Observed (sites 779/789, MG-HI, MG-DH, VSRFVTWIEGVM(+16)RNN): 3 | Spectra Observed (sites 779/789, MG-HI, VSRFVTWIEGVM(+16)RNN): 3
